Results on six molecules are retold here after PMC5771238 (Neuropharmacology, 2017).

Molecules are shown by their SMILES. Read-outs that look alike come from different tables or passages of the source.

Experiment [1] deals with ICR mice. Nature of the experiment: Cannabinoid tetrad tests. The class given is in vivo, mouse. Conditions: for effect on THC's effects on activity, hypothermia, catalepsy / effect on THC's anti-nociceptive effect: 10 mg/kg modulator i.p. 10 min before 30 mg/kg THC; for effect on THC's anti-nociceptive effect: tail flick.
Experiment [2] relates to C57/Bl6J mice. Nature of the experiment: THC drug discrimination. The class given is in vivo, mouse. As to conditions: for effect on response rates / effect on THC's discriminative stimulus effects / substitution for THC when administered alone: second group; for effect on THC's discriminative stimulus effects: modulators 10 mg/kg, rimonabant 1 mg/kg with 5.6 mg/kg THC.
The target in experiment [3] is T1, CB1 receptor (Mus musculus, UniProt P47746). Nature of the experiment: CP55,940-stimulated [35S]GTPγS binding in mouse cerebellar membranes. Format: biochemical. Conditions: for alpha ± SEM (binding cooperativity with CP55,940) / beta ± SEM (efficacy modifier): allosteric operational model, logKA=−6.6, Emax=100, TA=14, TB=0, n=1, LogKB from [3H]SR141716 binding. On the technique in general: GTPγS is a poorly hydrolysed GTP analogue; its binding reports G protein activation.
T1 sequence (P47746 whole entry): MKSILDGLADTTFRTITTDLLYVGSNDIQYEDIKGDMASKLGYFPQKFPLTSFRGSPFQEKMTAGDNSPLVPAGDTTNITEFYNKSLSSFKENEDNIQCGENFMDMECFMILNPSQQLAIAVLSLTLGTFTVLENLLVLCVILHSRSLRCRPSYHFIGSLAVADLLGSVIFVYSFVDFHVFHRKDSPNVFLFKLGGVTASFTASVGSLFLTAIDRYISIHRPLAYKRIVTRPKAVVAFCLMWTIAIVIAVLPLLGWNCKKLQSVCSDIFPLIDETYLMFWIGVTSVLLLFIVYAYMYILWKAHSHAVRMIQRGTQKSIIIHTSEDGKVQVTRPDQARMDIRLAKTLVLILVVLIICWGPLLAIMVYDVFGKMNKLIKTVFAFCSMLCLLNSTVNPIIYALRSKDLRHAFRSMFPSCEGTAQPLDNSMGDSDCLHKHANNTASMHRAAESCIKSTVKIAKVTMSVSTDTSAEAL

For experiment [4], the target named is T1, CB1 receptor. Nature of the experiment: THC-stimulated [35S]GTPγS binding in mouse cerebellar membranes. The class given is biochemical. As to conditions: pregnenolone 1 – 10 μM.
In experiment [5] the target is T1, CB1 receptor. Description: [3H]CP55,940 specific binding.
Experiment [6] deals with T1, CB1 receptor.
Experiment [7] relates to mice. Nature of the experiment: Feeding in mice. Conditions: 30 mg/kg; unpublished results. Format: in vivo, mouse.
Experiment [8] concerns the target T1, CB1 receptor. Description: biochemical. Conditions: pKB ± SEM.
Where [9] appears, read: 3 parameter non-linear regression.
Where [10] appears, read: 1 nM [3H]SR141716, allosteric ternary complex model, no GDP.

As to `CCCCCc1cc(O)c2c(c1)OC(C)(C)[C@@H]1CCC(C)=C[C@@H]21` [THC, delta-9-tetrahydrocannabinol], in experiment [1] (THC 30 mg/kg i.p. with vehicle), the “effect on locomotor activity” value is recorded as “did not affect locomotor activity”; the “tetrad effects: antinociception, hypothermia, catalepsy” value was “produced rimonabant-reversible antinociception (Figure 4B), hypothermia (Figure 4C), and catalepsy (Figure 4D)”.

Turning to `CC(=O)[C@H]1CC[C@H]2[C@@H]3CC=C4C[C@@H](O)CC[C@]4(C)[C@H]3CC[C@]12C` [pregnenolone], in experiment [1] (stated in abstract only), the “effect on THC's effects in the cannabinoid tetrad” value was “did not block THC’s effects”. Further, the “substitution and response rate effects in combination with vehicle” value in experiment [2] (first group, compound alone) is “neither compound produced substitution or response rate effects”.

As to `N#Cc1ccc(NC(=O)Nc2cccc(-c3cccc(N4CCCC4)n3)c2)cc1` [RTICBM-28], the “pIC50 ± SEM” value in experiment [3] (CP55,940 10 nM) is reported as 7.34 ± 0.05. Further, the “pIC50 ± SEM” value in experiment [3] (CP55,940 1 μM) is given as 7.72 ± 0.03. Besides, the “pIC50 ± SEM” value in experiment [3] (CP55,940 10 μM) is 7.59 ± 0.03. Further, in experiment [3], the “alpha ± SEM (binding cooperativity with CP55,940)” value came to 201.1 ± 11.95 and the “beta ± SEM (efficacy modifier)” value amounted to 0.001 ± 0.001. Moreover, in experiment [4], the “effect on THC-stimulated [35S]GTPγS binding” value is “produced insurmountable antagonism”. Besides, in experiment [5] (setting [9]), the “Top ± SEM (maximal increase in specific binding of [3H]CP55,940)” value was found to be 477.5 ± 15.14 and the “pEC50 ± SEM for increase in specific binding of [3H]CP55,940” value is listed as 6.61 ± 0.07. Further, in experiment [1], the “effect on THC's effects on activity, hypothermia, catalepsy” value is listed as “did not alter” and the “effect on THC's anti-nociceptive effect” value is given as “but not RTICBM-15 or RTICBM-28, decreased THC’s anti-nociceptive effect”. Besides, in experiment [2], the “effect on response rates” value was “Neither compound decreased response rates” and the “effect on THC's discriminative stimulus effects” value was “lowered THC potency”. Moreover, in experiment [6] (setting [10]), the “logα ± SEM (cooperativity with [3H]SR141716)” value is −1.13 ± 0.18 and the “pKB ± SEM” value came to 6.65 ± 0.11. The “pKB ± SEM” value in experiment [6] (in presence of 30 μM GDP) turned out to be 5.86 ± 0.10.

On to `Cc1c(C(=O)NN2CCCCC2)nn(-c2ccc(Cl)cc2Cl)c1-c1ccc(Cl)cc1` [SR141716, rimonabant], for which, in experiment [1] (3 mg/kg rimonabant and 30 mg/kg THC), the “effect on locomotor activity in combination with THC” value is reported as “increased activity”. The “reversal of THC-induced antinociception, hypothermia, catalepsy” value in experiment [1] (3 mg/kg rimonabant i.p. before 30 mg/kg THC) is recorded as “rimonabant-reversible”. Further, the “effect on locomotor activity, anti-nociception, rectal temperature, catalepsy when followed by vehicle injection” value in experiment [1] (10 mg/kg modulator or 3 mg/kg rimonabant i.p., vs vehicle/vehicle) was “did not have any effect”. In experiment [2], the “effect on response rates” value was “significantly decreased response rates”, the “substitution for THC when administered alone” value is recorded as “without substituting themselves when administered alone” and the “effect on THC's discriminative stimulus effects” value is “blocked THC’s discriminative stimulus effects”.

Usually IC50 stands for the midpoint of a concentration-inhibition curve. Broadly, the EC50 is the concentration giving half of the maximal effect. A low value points to a more potent agent. Consider `O=C(Nc1ccc(Cl)cc1)Nc1cccc(-c2cccc(N3CCCC3)n2)c1` [PSNCBAM-1, 1-(4-chlorophenyl)-3-{3-[6-(pyrrolidin-1-yl)pyridin-2-yl]phenyl}urea], for which the IC50 is 49.2 nM in experiment [3] (IC50, at 100 nM CP55,940); 83.2 nM in experiment [3] (pIC50 ± SEM, CP55,940 10 nM); 39.8 nM in experiment [3] (pIC50 ± SEM, CP55,940 1 μM); 50.1 nM in experiment [3] (pIC50 ± SEM, CP55,940 10 μM). The “alpha ± SEM (binding cooperativity with CP55,940)” value in experiment [3] is reported as 55.01 ± 3.76. Also, the “beta ± SEM (efficacy modifier)” value in experiment [3] worked out at 0.003 ± 0.001. The “effect on THC-stimulated [35S]GTPγS binding” value in experiment [4] is “produced insurmountable antagonism”. A half-maximal effect in experiment [5] (EC50) was put at 295 nM. Besides, the “Top ± SEM (maximal increase in specific binding of [3H]CP55,940)” value in experiment [5] (setting [9]) worked out at 419.1 ± 8.75. In addition, the “effect on THC's effects on activity, hypothermia, catalepsy” value in experiment [1] is “did not alter”. In addition, in experiment [1], the “effect on THC's anti-nociceptive effect” value is reported as “decreased THC’s anti-nociceptive effect”. Besides, the “effect on response rates” value in experiment [2] is listed as “Neither compound decreased response rates”. The “effect on THC's discriminative stimulus effects” value in experiment [2] is “did not alter THC’s discriminative stimulus effects”. Moreover, in experiment [7], the “effect on feeding in mice” value is reported as “did not observe an effect”. Also, in experiment [6] (setting [10]), the “logα ± SEM (cooperativity with [3H]SR141716)” value was −0.73 ± 0.12. The figures for the Kb in experiment [8] (setting [10]) and in experiment [8] (in presence of 30 μM GDP) were 195 nM and 1820 nM, respectively.

Take `CCNC1(C(N)=O)CCN(c2ncnc3c2nc(-c2ccccc2Cl)n3-c2ccc(Cl)cc2)CC1` [otenabant]: in experiment [2], the “effect on response rates” value is listed as “significantly decreased response rates”, the “substitution for THC when administered alone” value was “without substituting themselves when administered alone” and the “effect on THC's discriminative stimulus effects” value is given as “blocked THC’s discriminative stimulus effects”.
